From US20050069517A1, “Hair conditioning compositions” (priority 2003, published 2005)

Assay: Hair penetration by TOF-SIMS imaging of cross sections of treated hair fibers
Assay type: physicochemical, human
Conditions: bleached dark brown European hair; agent massaged in, 24 hours at approximately 32° C., rinsed 1 minute, air-dried; positive-ion TOF-SIMS images
Method: What is meant by “penetrate” is that the hair conditioning agent is deposited into a region of the hair following application of the conditioning agent to the hair for twenty-four hours. Such analysis of hair penetration is set forth below in Example 8.
Various hair conditioning agents were tested for their ability to penetrate into human hair. Secondary ion mass spectrometry (SIMS) in combination with a time of flight (TOF) mass spectrometer was used to determine hair penetration. Time-Of-Flight Secondary Ion Mass Spectrometry (TOF-SIMS) makes use of the secondary ion mass spectra (of atomic species or low molecular weight fragments), which are formed when the sample surface (e.g., surface of hair fiber cross sections) is bombarded with a positively charged gallium ion beam. The positive and negative ion mass spectra of the sample were obtained by the time-of-flight method. See, e.g., Ruetsch, et al., J. Cosmet. Sci., 52, 169-184 (2001). The Gallium gun, which emits a pulsed primary ion beam (accelerating voltage of 25 kV), was used in the study.
The protocol was as follows. Dark brown European hair obtained from DeMeo Brothers, New York, N.Y. was bleached for 30 minutes with alkaline 6% hydrogen peroxide (adjusted to pH 10.2 with ammonium hydroxide). […]

SMILES: CCCCCCCCCCCCCCCC(=O)N[C@@H](CO)C(=O)OCCCCCCCCCCCCCC [Palmitoyl Myristyl Serinate]
- penetration of hair conditioning agent into hair fiber cross section: not detected in the cross section of treated hair
